US20040081655A1, “Methods and compositions comprising polycationic compounds” (priority 2001, published 2004)
“Also recorded” adds a separate entry of the source.

Experiments:
TNF-α and IL-6 = assay: CpG-ODN-induced systemic production of TNF-α and IL-6 in vivo, serum ELISA (Example 4); design: species or system Mice C57Bl/6; conditions: for production of IL-6 in serum after injection / production of TNF-α in serum after injection: one hour after injection into hind footpads, ELISA
Experimental: (§1) Mice were injected into each hind footpad with a total volume of 100 μl (50 μl per footpad), containing the above mentioned compounds. One hour after injection blood was taken from the tail-vein and serum was prepared. The amount of the pro-inflammatory cytokines TNF-α and IL-6 in the sera was determined by cytokine-specific ELISAs according to the manufacturer's instructions (R&D Systems, Inc., Minneapolis, Minn.).

CD11c+ sorted BM-DC [1] = assay: CpG-ODN-induced production of TNF-α and IL-6 by murine BM-DC in vitro, KLK (Example 7); format: cell-based, C57B1/6 mice; conditions: 24 h; for production of IL-6 by murine BM-DC / production of TNF-a by murine BM-DC: substance alone (KLK 16, 8 μg/ml; CpG-ODN 1668 0.5 nmol/ml), supernatant ELISA
Experimental: (§2) Murine dendritic cells (DC) were generated from bone-marrow precursor cells of C57Bl/6 mice as previously described (Inaba 1992). Briefly, bone marrow cells were obtained by flushing the femurs and tibias with medium. Cells were depleted of lymphocytes, granulocytes and MHC class II^+cells by Ab-complement-mediated lysis. Dead cells were removed by Ficoll gradient (Ficoll Separating Solution, density […]; Biochrom KG, Germany). The remaining cells (1×10^6/ml) were cultured in 24-well culture plates in high glucose DMEM medium (PAA Laboratories GmbH, Linz, Austria; E 15-009) supplemented with 10% heat-inactivated FCS, 10. mM sodium pyruvate, 2 mM L-glutamine, […] gentamicin, 0.5 mM 2-mercaptoethanol (all supplements from PAA Laboratories GmbH, Linz, Austria), 20 ng/ml GM-CSF and 250 U/ml IL-4. On day 3 of culture, cells were fed with fresh medium. On day 6 of culture, non-adherent cells and loosely adherent aggregates were harvested, washed and re-plated in 6-well culture plates (2×10^6/5 ml). After additional 1 day of culture, non-adherent cells were collected for analyses. […] For in vitro-stimulations, day 7-cultured bone marrow cells were further enriched for CD11c^+ cells (=DC) using magnetic beads (Miltenyi, Bergisch-Gladbach, Germany). The purity of BM-DC was more than 95% as determined by flow cytometry analyses. […] Supernatants were harvested after 24 h and analysed for the production of TNF-α and IL-6 using specific ELISAs.
Murine dendritic cells (DC) were generated from bone-marrow precursor cells of C57B1/6 mice as described in example 5.

human dendritic cells = assay: LPS-induced production of pro-inflammatory cytokines by human dendritic cells in vitro (Example 10); conditions: for LPS-induced production of pro-inflammatory cytokines by human dendritic cells: in vitro, mode of incubation not specified; for production of IL-6 by human dendritic cells / production of TNF-a by human dendritic cells: substance alone (LPS 5 ng/ml; pR60 10 μg/ml; KLK 16, 8 μg/ml; pK 10 μg/ml), culture medium 12 h then substance 12 h
Experimental: Human DC were generated from monocytes. Briefly, peripheral blood leukocytes (PBLs) were isolated from buffy coats of healthy volunteers by Ficoll gradient centrifugation. Monocytes were isolated from PBLs using CD14-coated magnetic beads (Miltenyi Biotec Inc., Germany) applied according to the manufacturer's instructions. Using this method, we obtained >95% CD14^+ cells as determined by flow cytometry. These CD14^+ monocytes were cultured in RPMI 1640 medium supplemented with 10% FCS (PAA Laboratories, Linz, Austria), non-essential aminoacids, L-glutamin, gentamicin, sodium pyruvate, 100 ng/ml human GM-CSF and 500 U/ml human IL-4 in 6-well tissue plates for 6-7 days. To this end, the cultures contained >80%. MHC class II^+/CD1a^+ cells (=DC).
Human dendritic cells (DC) were generated as described in example 6. For in vitro-stimulations, day 7-cultured dendritic cells were incubated for 12 h with the indicated compounds. After centrifugation, supernatant was removed, cells were washed once with medium, then fresh medium with the indicated compounds was added, and the cells were incubated for additional 12 h. Supernatants were harvested and analyzed for the production of TNF-a and IL-6 using specific ELISAs.

CD11c+ sorted BM-DC [2] = assay: CpG-ODN-induced production of TNF-α and IL-6 by murine BM-DC in vitro, poly-L-arginine (Example 5); format: cell-based, C57Bl/6 mice; conditions: 24 h; for production of IL-6 by murine BM-DC / production of TNF-α by murine BM-DC: substance alone (poly-L-arginine 10 μg/ml; CpG-ODN 1668 1 nmol/ml), supernatant ELISA
Experimental: as §2

[3] = system: human monocyte-derived DC; assay: Poly I:C-induced production of pro-inflammatory cytokines by human DC in vitro (Example 6); format: cell-based; conditions: for poly I:C-induced production of pro-inflammatory cytokines by human DC: poly I:C and pR60 together, in vitro; for production of IL-6 by human DC / production of TNF-α by human DC / production of IL-12/p70 by human DC: substance alone, 10 μg/ml, supernatant ELISA
Experimental: Human DC were generated from monocytes.
To determine, which cytokines are induced/produced by DC upon poly I:C and/or pR stimulation, DC were incubated with different stimuli for 12 and 24 hours, supernatants were harvested, stored at −20° C. and screened for the presence of respective cytokines by specific ELISAs.

TNF-a and IL-6 = assay: BCG/CpG-ODN-induced systemic production of TNF-a and IL-6 in vivo, serum ELISA (Example 8); design: species or system Mice C57Bl/6
Experimental: as §1, with “injected subcutaneously” for “injected”, “the flank” for “each hind footpad”, “μl,” for “μl (50 μl per footpad),”, “TNF-a” for “TNF-α”

[4] = system: murine bone-marrow-derived dendritic cells; assay: LPS-induced production of pro-inflammatory cytokines by murine bone-marrow-derived dendritic cells in vitro (Example 9); format: cell-based, C57Bl/6 mice
Experimental: Murine dendritic cells (DC) were generated from bone-marrow precursor cells of C57Bl/6 mice as previously described (Inaba 1992). Briefly, bone marrow cells were obtained by flushing the femurs and tibias with medium. Cells were depleted of lymphocytes, granulocytes and MHC class II^+cells by Ab-complement-mediated lysis. Dead cells were removed by Ficoll gradient (Ficoll Separating Solution, density […]; Biochrom KG, Germany). The remaining cells (1×10^6/ml) were cultured in 24-well culture plates in high glucose DMEM medium (PAA Laboratories GmbH, Linz, Austria; E 15-009) supplemented with 10% heat-inactivated FCS, 10. mM sodium pyruvate, 2 mM L-glutamine, […] gentamicin, 0.5 mM 2-mercaptoethanol (all supplements from PAA Laboratories GmbH, Linz, Austria), 20 ng/ml GM-CSF and 250 U/ml IL-4. On day 3 of culture, cells were fed with fresh medium. On day 6 of culture, non-adherent cells and loosely adherent aggregates were harvested, washed and re-plated in 6-well culture plates (2×10^6/5 ml). After additional 1 day of culture, non-adherent cells were collected for analyses. […] For in vitro-stimulations, day 7-cultured bone marrow cells were further enriched for CD11c^+ cells (=DC) using magnetic beads (Miltenyi, Bergisch-Gladbach, Germany). The purity of BM-DC was more than 95% as determined by flow cytometry analyses.
Murine dendritic cells (DC) were generated from bone-marrow precursor cells of C57Bl/6 mice as described in example 5.

[5] = mixture of CpG-ODN 1668 (0.5 nmol/ml) and KLK (16, 8 μg/ml)
[6] = cells pre-incubated with polycationic compound 12 h, then LPS 12 h
[7] = mixture of LPS and polycationic compound, 12 h
[8] = poly-L-arginine co-injected with OVA257-264-peptide and CpG-ODN, serum one hour after injection
[9] = mixture of CpG-ODN 1668 (1 nmol/ml) and poly-L-arginine (10 μg/ml)
[10] = mixture of pIC (10 μg/ml) and pR (10 μg/ml), 12 and 24 hours
[11] = BCG vaccine and CpG-ODN co-injected with poly-L-arginine, serum one hour after injection
[12] = cells pre-incubated with poly-L-arginine 12 h, then LPS 12 h
[13] = mixture of LPS/poly-L-arginine, 12 h
[14] = substance alone (LPS 10 ng/ml; pR60 10 μg/ml), culture medium 12 h then substance 12 h
[15] = one hour after s.c. injection into the flank, ELISA

Compound	production of IL-6 by murine BM-DC (CD11c+ sorted BM-DC [1])	production of TNF-a by murine BM-DC (CD11c+ sorted BM-DC [1])	LPS-induced production of IL-6 by human dendritic cells (human dendritic cells; [6])	LPS-induced production of TNF-a by human dendritic cells (human dendritic cells; [6])	LPS-induced production of pro-inflammatory cytokines by human dendritic cells (human dendritic cells)	LPS-induced production of IL-6 by human dendritic cells (human dendritic cells; [7])	LPS-induced production of TNF-a by human dendritic cells (human dendritic cells; [7])	production of IL-6 by human dendritic cells (human dendritic cells)	production of TNF-a by human dendritic cells (human dendritic cells)	production of IL-6 by human DC ([3]; 12 and 24 hours)	production of TNF-α by human DC ([3]; 12 and 24 hours)	production of IL-12/p70 by human DC [3]	also measured
CC[C@H](C)[C@H](NC(=O)[C@@H](NC(=O)[C@@H](N)CO)[C@@H](C)CC)C(=O)N[C@@H](CC(N)=O)C(=O)N[C@@H](Cc1ccccc1)C(=O)N[C@@H](CCC(=O)O)C(=O)N[C@@H](CCCCN)C(=O)N[C@@H](CC(C)C)C(=O)O [OVA257-264, reference compound]													production of IL-6 in serum after injection (TNF-α and IL-6): does not-induce the production of detectable amounts; production of TNF-α in serum after injection (TNF-α and IL-6): does not-induce the production of detectable amounts; production of IL-6 in serum after injection (TNF-α and IL-6; listed as OVA257-264-peptide): neither the injection of OVA257-264-peptide alone nor in combination with poly-L-arginine led to the induction of significant amounts; production of TNF-α in serum after injection (TNF-α and IL-6; listed as OVA257-264-peptide): neither the injection of OVA257-264-peptide alone nor in combination with poly-L-arginine led to the induction of significant amounts
KLKLLLLLKLK	could not detect any	could not detect any	inhibited	inhibited	decrease	inhibited	inhibited	could not detect any	could not detect any				CpG-ODN 1668-induced production of IL-6 by murine BM-DC (CD11c+ sorted BM-DC [1]; [5]): inhibited; also recorded: abrogates; CpG-ODN 1668-induced production of TNF-a by murine BM-DC (CD11c+ sorted BM-DC [1]; [5]): inhibited; also recorded: abrogates
Poly-D-lysine Hydrobromide			inhibited	inhibited	decrease	inhibited	inhibited	could not detect any	could not detect any				
Poly-L-Arginine			inhibited	inhibited	decrease	inhibited	inhibited	could not detect any	could not detect any	could not detect any	could not detect any	could not detect any	CpG-ODN-induced systemic production of IL-6 (TNF-α and IL-6; [8]): inhibited; also recorded: prevents; also recorded: totally abolished; CpG-ODN-induced systemic production of TNF-α (TNF-α and IL-6; [8]): inhibited; also recorded: prevents; also recorded: totally abolished; CpG-ODN 1668-induced production of IL-6 by murine BM-DC (CD11c+ sorted BM-DC [2]; [9]): inhibited; also recorded: abrogates; CpG-ODN 1668-induced production of TNF-α by murine BM-DC (CD11c+ sorted BM-DC [2]; [9]): inhibited; also recorded: abrogates; production of IL-6 by murine BM-DC (CD11c+ sorted BM-DC [2]): could not detect any; also recorded: neither TNF-α nor IL-6 were detectable; production of TNF-α by murine BM-DC (CD11c+ sorted BM-DC [2]): could not detect any; also recorded: neither TNF-α nor IL-6 were detectable; poly I:C-induced IL-6 production by human DC [3, 10]: inhibited; poly I:C-induced TNF-α production by human DC [3, 10]: inhibited; poly I:C-induced production of pro-inflammatory cytokines by human DC [3]: abrogates; also recorded: inhibits; poly I:C-induced production of pro-inflammatory cytokines by human DC ([3]; listed as pR): can be inhibited; BCG/CpG-ODN-induced systemic production of IL-6 (TNF-a and IL-6; [11]): inhibited; also recorded: prevents; BCG/CpG-ODN-induced systemic production of TNF-a (TNF-a and IL-6; [11]): inhibited; also recorded: prevents; LPS-induced production of IL-6 by murine BM-DC [4, 12]: inhibited; LPS-induced production of TNF-a by murine BM-DC [4, 12]: inhibited; LPS-induced production of pro-inflammatory cytokines by murine bone-marrow-derived dendritic cells ([4]; in vitro, mode of incubation not specified): decrease; LPS-induced production of IL-6 by murine BM-DC [4, 13]: inhibited; LPS-induced production of TNF-a by murine BM-DC [4, 13]: inhibited; production of IL-6 by murine BM-DC [4, 14]: could not detect any; production of TNF-a by murine BM-DC [4, 14]: could not detect any
Polyinosinic-polycytidylic acid [poly I:C, reference compound]										triggers the production	triggers the production	produced IL-12/p70	
tcc atg acg ttc ctg atg ct (TCCATGACGTTCCTGATGCT; chemistry not given here) [CpG-ODN 1668, phosphothioate-modified oligodinucleotides containing a CpG-motif, reference compound]	induces the production	induces the production											production of IL-6 by murine BM-DC (CD11c+ sorted BM-DC [2]; listed as CPG-ODN 1668): induces the production; production of TNF-α by murine BM-DC (CD11c+ sorted BM-DC [2]; listed as CPG-ODN 1668): induces the production; production of IL-6 by murine BM-DC (CD11c+ sorted BM-DC [2]; listed as CpG-ODN): significant amounts of both cytokines are produced; production of TNF-α by murine BM-DC (CD11c+ sorted BM-DC [2]; listed as CpG-ODN): significant amounts of both cytokines are produced; production of IL-6 in serum after injection (TNF-a and IL-6; [15]): induces the systemic production; production of TNF-a in serum after injection (TNF-a and IL-6; [15]): induces the systemic production
